Assay results: publication PMC9863691, “A Novel Ferroptosis Inhibitor UAMC-3203, a Potential Treatment for Corneal Epithelial Wound” (Pharmaceutics, 2022)

How the values were obtained:
[1] = test system: mouse model of (multi)organ dysfunction and death; parameters: method as in PMID 35210435; settings: cited from earlier work
[2] = pH 7.4
[3] = test system: alkali burn corneal wounds in ex vivo mouse eyes; test: corneal epithelial wound healing in ex vivo mouse eyes; parameters: species or system C57BL/6 mice; settings: for initial wound area: 0–2 h after wound
Source text: For the study, C57BL/6 mice (Laboratory Animal Centre, the University of Eastern Finland) were euthanized, and the eyes were excised carefully with sterile forceps and micro-scissors to avoid any damage to the cornea. The eyes were transported in ice-cold Dulbecco’s modified Eagle’s Medium/Ham’s F12 (DMEM/F-12, Gibco, Life Technologies, Carlsbad, CA, USA). Then the eyes were adhered to a Petri dish with tissue adhesive (3M Vetbond, St. Paul, MN, USA). The corneal epithelial wound was produced by placing an alkali soaked (0.5% sodium hydroxide) Whitman filter paper of 2 mm diameter on the corneal surface for 2 min, as reported earlier. After removal of the filter paper, the remaining epithelium on the alkali-exposed surface was carefully removed with a micro scalpel, and the eyes were rinsed with PBS. Pre-warmed UAMC-3203 (10 mL of 10 nM, 1µM, 10 µM, and 50 µM solutions) was added in serum-free media that was supplemented with 1% penicillin-streptomycin solution ([…], 0.1 mg/mL streptomycin) (Corning, Ref 30-002-CI, Mediatech Inc., Discovery Boulevard, Manassas, VA, USA) to the Petri dishes so that the eyes were submerged. The serum-free medium without UAMC-3203 was used as the negative control, and the medium with 10% FBS was used as the positive control. The samples were cultivated under standard tissue culture conditions (37 °C, 5% CO2-atmosphere, and 95% relative humidity) for 48 h. In order to measure the wound area, images were taken with a Zeiss Axio Scope A1 microscope (Carl Zeiss Microscopy GmbH, Oberkochen, Germany) at different time points (initial (in less than 2 h after wound), 6, 24, 30, and 48 h). For imaging, the media was removed from the dish, and 0.1% fluorescein (2 µL) was added to the corneal surface, followed by PBS (10 µL) to rinse excess fluorescein. A clean tissue was then used to soak excess fluorescein and PBS, and the medium was added again to the dish after imaging. The medium was changed after 24 h. The wound area was quantified with Fiji software.

[4] = test system: HCE cells; test: in vitro cytotoxicity, MTT assay; format: cell-based, human; settings: 3 h exposure
Experimental: The cytotoxicity of UAMC-3203 was assessed by MTT assay. The HCE cells were seeded on a 96-well plate at a density of 100,000 cells/well in 200 µL of supplemented growth medium. The next day the cells were washed with PBS (pH 7.2). The cells were then exposed to UAMC-3203 at concentrations 10 nM, 1 µM, 10 µM, and 50 µM for 3 h. For control, cells not exposed to UAMC-3203 cultured in a serum-free medium were used. The cells were then washed twice with PBS and incubated 2 h with 100 µL of 10% of thiazolyl blue tetrazolium bromide (MTT, Sigma-Aldrich, St. Louis, MO, USA) in a serum-free medium. An amount of 100 µL of 20% (w/v) sodium dodecyl sulfate (SDS), N-dimethylformamide (DMF) lysis buffer was added to each well and incubated overnight. The following day, cell viability was evaluated by measuring absorbance at 570 nm with a Victor^2 multilabel plate reader (PerkinElmer, Wallac, St. Paul, MN, USA). The cell viability % was calculated as below:(2) % of cell viability=Abs exposed cells−Abs blank/Abs non−exposed cells−Abs blank×100 where Abs exposed cells = absorbance of cells exposed to UAMC-3203; Abs blank = absorbance of well plates without cells; and Abs non–exposed cells = Absorbance of cells exposed to serum-free medium (i.e., control).

[5] = chemical stability of 100 µM solution in PBS; format: physicochemical
Experimental: The chemical stability of 100 µM UAMC-3203 in PBS (pH 7.4) was investigated for 30 days as described previously. Briefly, four batches with triplicates were stored at 4, 25, or 37 °C with light protection and at 25 °C without light protection. Separate solutions were used for pH-dependent stability studies. Samples were collected, and pH was measured at various times. The samples were stored at −20 °C until HPLC analysis.
The quantitation of UAMC-3203 was performed with […] reverse-phase HPLC system consisting of a degasser (G1379B), multi-sampler (G1367D), a binary pump (G1312B), a thermostat (G1316B), and a diode array detector (DAD) detector (G1315C). A Zorbax Eclipse XDB-C18 (4.6 × 50 mm, 4 μm; Agilent Technologies, Santa Clara, CA, USA) column was used for the analyses. The mobile phase was composed of 0.1% […] (Sigma-Aldrich, St. Louis, MO, USA) in Milli-Q-H2O and 0.1% […] in acetonitrile (LC-MS Chromasolv, Honeywell, Riedel-de Haen, Seelze, Germany) (65:35% v/v). Isocratic analysis was performed at a flow rate of 1 mL/min. The injection volume was 5 μL, and the detection wavelength was 240 nm.

[6] = human microsome; cited from earlier work
[7] = test system: ferroptosis; parameters: method as in PMID 30354101; settings: read-out: in vitro potency IC50 (ferroptosis); cited from earlier work

In the case of O=S(=O)(NCCN1CCNCC1)c1ccc(NC2CCCCC2)c(NCc2ccccc2)c1 [UAMC-3203], the “efficacy compared to Fer-1” value [1] is given as “more effective”, the “Log D7.4” value [2] is given as 0.95 and the initial wound area ([3]; 10 nM) is given as 2.59 ± 0.27 mm^2. For the same compound, the “wound area at 48 h” value ([3]; 10 nM) was 0.22 ± 0.16 mm^2, the “wound area compared to negative control” value ([3]; 10 nM, p = 0.03) was “significantly lower wound area at 48 h” and the wound healing ([3]; 10 nM–10 µM) was > 85%. For the same compound, the “wound area compared to negative control” value ([3]; 1 µM) was “no notable difference at any time point”, the initial wound area ([3]; 1 µM) was 2.46 ± 0.42 mm^2 and the “wound area at 48 h” value ([3]; 1 µM) was 0.35 ± 0.3 mm^2. The initial wound area ([3]; 10 µM) was 2.44 ± 0.52 mm^2, the “wound area at 48 h” value ([3]; 10 µM) was 0.10 ± 0.21 mm^2 and the “wound area compared to negative control” value ([3]; 10 µM, p ≤ 0.005) was “significant difference in wound area at 24–48 h”. For the same compound, the “change of corneal epithelial wound area” value ([3]; 50 µM) was “did not cause any changes in the corneal epithelial wound area”, the “optimal concentration for wound healing” value ([3]; ex vivo) was 10 µM and the “toxicity to HCE cells” value ([4]; 10 nM) was “did not cause any toxicity”. For the same compound, the “toxicity to HCE cells” value ([4]; 1 µM) was “did not cause any toxicity”, the HCE cell viability ([4]; 10 µM) was 75 ± 6.7% and the HCE cell viability ([4]; 50 µM) was 39.2 ± 5.6%. The “% of initial concentration at day 30” value ([5]; 100 µM in PBS pH 7.4, various temperatures and light exposure conditions) was “about 90%”, the “pH of the solution during 30 days” value ([5]; starting pH 7.4, all conditions) was 7.5–7.6 and the “t1/2 in human microsome” value [6] was 20 h. For the same compound, the IC50 [7] was 10 nM.
